From PubChem BioAssay (NCI)
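Cells were grown in 96-well plates and exposed to each compound for 48 hours at five concentrations; endpoints were interpolated linearly between bracketing concentrations, or set to the highest concentration if not reached. Abbreviation: GI50, concentration required for 50% inhibition of growth. TGI denotes the concentration required for complete inhibition of growth.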

Columns and labels:
Experiment in all cases: NCI-60 cell line screen, 48 h
A549 NSCLC = system: A549 NSCLC
EKVX NSCLC = system: EKVX NSCLC
SF-268 CNS = system: SF-268 CNS
PC-3 prostate = system: PC-3 prostate
CAKI-1 renal = system: CAKI-1 renal
MDA-MB-231 breast = system: MDA-MB-231 breast
LOX IMVI melanoma = system: LOX IMVI melanoma
K-562 leukemia = system: K-562 leukemia
MCF7 breast = system: MCF7 breast
KM12 colon = system: KM12 colon
RXF 393 renal = system: RXF 393 renal
OVCAR-3 ovarian = system: OVCAR-3 ovarian
HCC-2998 colon = system: HCC-2998 colon
COLO 205 colon = system: COLO 205 colon
SW-620 colon = system: SW-620 colon
SNB-19 CNS = system: SNB-19 CNS
NCI/ADR-RES ovarian = system: NCI/ADR-RES ovarian
ACHN renal = system: ACHN renal
T-47D breast = system: T-47D breast
OVCAR-5 ovarian = system: OVCAR-5 ovarian
U251 CNS = system: U251 CNS
HCT-15 colon = system: HCT-15 colon
NCI-H522 lung = system: NCI-H522 lung
HS 578T breast = system: HS 578T breast
786-0 renal = system: 786-0 renal
M14 melanoma = system: M14 melanoma
RPMI-8226 leukemia = system: RPMI-8226 leukemia
UACC-62 melanoma = system: UACC-62 melanoma
HCT-116 colon = system: HCT-116 colon
BT-549 breast = system: BT-549 breast
SK-MEL-28 melanoma = system: SK-MEL-28 melanoma
OVCAR-8 ovarian = system: OVCAR-8 ovarian
SK-MEL-2 melanoma = system: SK-MEL-2 melanoma
HL-60(TB) leukemia = system: HL-60(TB) leukemia
NCI-H226 lung = system: NCI-H226 lung
TK-10 renal = system: TK-10 renal
MDA-MB-435 = system: MDA-MB-435
SF-295 CNS = system: SF-295 CNS
SK-MEL-5 melanoma = system: SK-MEL-5 melanoma
NCI-H460 lung = system: NCI-H460 lung
UACC-257 melanoma = system: UACC-257 melanoma
UO-31 renal = system: UO-31 renal
HOP-62 NSCLC = system: HOP-62 NSCLC
NCI-H23 lung = system: NCI-H23 lung
HOP-92 NSCLC = system: HOP-92 NSCLC
IGROV1 ovarian = system: IGROV1 ovarian
HT29 colon = system: HT29 colon
SN12C renal = system: SN12C renal
MOLT-4 leukemia = system: MOLT-4 leukemia
CCRF-CEM leukemia = system: CCRF-CEM leukemia

O=C(O)c1ccccc1NCn1nc(-c2ccccc2O)oc1=S
GI50 (A549 NSCLC): 51 µM
TGI (A549 NSCLC): > 100 µM
GI50 (EKVX NSCLC): > 100 µM
TGI (EKVX NSCLC): > 100 µM
GI50 (SF-268 CNS): 80.9 µM
TGI (SF-268 CNS): > 100 µM
GI50 (PC-3 prostate): 43.6 µM
TGI (PC-3 prostate): > 100 µM
GI50 (CAKI-1 renal): > 100 µM
TGI (CAKI-1 renal): > 100 µM
GI50 (MDA-MB-231 breast): 16.8 µM
TGI (MDA-MB-231 breast): 47.8 µM
GI50 (LOX IMVI melanoma): 19.4 µM
TGI (LOX IMVI melanoma): 38.9 µM
GI50 (K-562 leukemia): 70.9 µM
TGI (K-562 leukemia): > 100 µM
GI50 (MCF7 breast): 46.7 µM
TGI (MCF7 breast): > 100 µM
GI50 (KM12 colon): > 100 µM
TGI (KM12 colon): > 100 µM
GI50 (RXF 393 renal): 68.9 µM
TGI (RXF 393 renal): > 100 µM
GI50 (OVCAR-3 ovarian): > 100 µM
TGI (OVCAR-3 ovarian): > 100 µM
GI50 (HCC-2998 colon): 33.7 µM
TGI (HCC-2998 colon): 86.7 µM
GI50 (COLO 205 colon): 49.6 µM
TGI (COLO 205 colon): > 100 µM
GI50 (SW-620 colon): 33.8 µM
TGI (SW-620 colon): > 100 µM
GI50 (SNB-19 CNS): > 100 µM
TGI (SNB-19 CNS): > 100 µM
GI50 (NCI/ADR-RES ovarian): 54 µM
TGI (NCI/ADR-RES ovarian): > 100 µM
GI50 (ACHN renal): 26.9 µM
TGI (ACHN renal): 82.8 µM
GI50 (T-47D breast): 68.7 µM
TGI (T-47D breast): > 100 µM
GI50 (OVCAR-5 ovarian): > 100 µM
TGI (OVCAR-5 ovarian): > 100 µM
GI50 (U251 CNS): 48.3 µM
TGI (U251 CNS): > 100 µM
GI50 (HCT-15 colon): 24.6 µM
TGI (HCT-15 colon): 65.3 µM
GI50 (NCI-H522 lung): > 100 µM
TGI (NCI-H522 lung): > 100 µM
GI50 (HS 578T breast): > 100 µM
TGI (HS 578T breast): > 100 µM
GI50 (786-0 renal): 35.4 µM
TGI (786-0 renal): > 100 µM
GI50 (M14 melanoma): 46.3 µM
TGI (M14 melanoma): > 100 µM
GI50 (RPMI-8226 leukemia): 4.14 µM
TGI (RPMI-8226 leukemia): 24.5 µM
GI50 (UACC-62 melanoma): 33.7 µM
TGI (UACC-62 melanoma): 92.3 µM
GI50 (HCT-116 colon): 26 µM
TGI (HCT-116 colon): 54.1 µM
GI50 (BT-549 breast): 73.8 µM
TGI (BT-549 breast): > 100 µM
GI50 (SK-MEL-28 melanoma): > 100 µM
TGI (SK-MEL-28 melanoma): > 100 µM
GI50 (OVCAR-8 ovarian): > 100 µM
TGI (OVCAR-8 ovarian): > 100 µM
GI50 (SK-MEL-2 melanoma): > 100 µM
TGI (SK-MEL-2 melanoma): > 100 µM
GI50 (HL-60(TB) leukemia): 64.9 µM
TGI (HL-60(TB) leukemia): > 100 µM
GI50 (NCI-H226 lung): 86.6 µM
TGI (NCI-H226 lung): > 100 µM
GI50 (TK-10 renal): > 100 µM
TGI (TK-10 renal): > 100 µM
GI50 (MDA-MB-435): > 100 µM
TGI (MDA-MB-435): > 100 µM
GI50 (SF-295 CNS): > 100 µM
TGI (SF-295 CNS): > 100 µM
GI50 (SK-MEL-5 melanoma): 73.4 µM
TGI (SK-MEL-5 melanoma): > 100 µM
GI50 (NCI-H460 lung): 39.5 µM
TGI (NCI-H460 lung): > 100 µM
GI50 (UACC-257 melanoma): > 100 µM
TGI (UACC-257 melanoma): > 100 µM
GI50 (UO-31 renal): > 100 µM
TGI (UO-31 renal): > 100 µM
GI50 (HOP-62 NSCLC): 39 µM
TGI (HOP-62 NSCLC): > 100 µM
GI50 (NCI-H23 lung): 40.1 µM
TGI (NCI-H23 lung): > 100 µM
GI50 (HOP-92 NSCLC): 30.4 µM
TGI (HOP-92 NSCLC): 94.6 µM
GI50 (IGROV1 ovarian): > 100 µM
TGI (IGROV1 ovarian): > 100 µM
GI50 (HT29 colon): 34.9 µM
TGI (HT29 colon): > 100 µM
GI50 (SN12C renal): 56.5 µM
TGI (SN12C renal): > 100 µM
GI50 (MOLT-4 leukemia): 9.98 µM
TGI (MOLT-4 leukemia): 30 µM
GI50 (CCRF-CEM leukemia): 10.6 µM
TGI (CCRF-CEM leukemia): 36.4 µM
